Measurements reported in paper PMC3736852 (Endocrine-related cancer, 2012).

Target: T1, Na+/I− symporter (NIS) (Rattus norvegicus, UniProt Q63008)
T1 sequence (Q63008 1-618): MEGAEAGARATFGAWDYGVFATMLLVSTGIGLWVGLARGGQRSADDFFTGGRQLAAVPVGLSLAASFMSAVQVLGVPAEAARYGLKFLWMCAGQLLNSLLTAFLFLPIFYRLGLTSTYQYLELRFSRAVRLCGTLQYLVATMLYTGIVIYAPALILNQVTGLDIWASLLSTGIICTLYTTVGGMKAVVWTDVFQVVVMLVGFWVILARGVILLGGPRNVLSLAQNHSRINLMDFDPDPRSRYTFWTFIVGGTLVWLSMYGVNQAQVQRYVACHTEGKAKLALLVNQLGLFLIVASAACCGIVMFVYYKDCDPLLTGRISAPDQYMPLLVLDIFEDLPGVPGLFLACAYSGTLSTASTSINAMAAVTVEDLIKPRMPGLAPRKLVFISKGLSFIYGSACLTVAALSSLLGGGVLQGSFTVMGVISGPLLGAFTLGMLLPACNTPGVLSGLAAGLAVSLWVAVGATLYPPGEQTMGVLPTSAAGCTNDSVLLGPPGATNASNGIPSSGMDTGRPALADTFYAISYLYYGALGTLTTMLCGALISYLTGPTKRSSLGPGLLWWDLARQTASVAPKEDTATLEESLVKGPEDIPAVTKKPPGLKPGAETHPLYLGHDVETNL
Assay: inhibition of NIS-mediated […] radioiodide uptake
Assay type: cell-based

[O-][Cl+3]([O-])([O-])O [perchlorate]
IC50: 3 µM
